Results: US20240122180A1, “FUNGICIDAL HALOMETHYL KETONES AND HYDRATES AND THEIR MIXTURES” (FMC Corporation, priority 2020, published 2024)

Legend:
[1] = test system: Phakopsora pachyrhizi (the causal agent of Asian soybean rust); test: Test A: preventive spray on soybean seedlings, visual disease rating (100 = 100% control; * 50 ppm, ** 10 ppm, *** 250 ppm); format: in vivo; settings: 100 = 100% disease control; for pest or weed control at 50 ppm / pest or weed control at 10 ppm: Phakopsora pachyrhizi
Method in brief: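 Preventive test: one day after spraying compound (acetone/water suspension, 250 ppm PEG400), seedlings received rust spore inoculum, 24 h in saturated air then 8 days in growth chamber, both at 22 °C. Disease control scored visually, 100 = complete, 0 = none, relative to untreated controls.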

[2] = test system: Puccinia recondita f. sp. tritici (the causal agent of wheat leaf rust); test: Test B: preventive spray on wheat seedlings, disease rating (100 = 100% control; * 50 ppm, ** 10 ppm, *** 250 ppm); format: in vivo; settings: 100 = 100% disease control; for pest or weed control at 50 ppm / pest or weed control at 10 ppm: Puccinia recondita
Method in brief: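 Preventive test: Puccinia recondita f. sp. tritici spores were inoculated one day after run-off spraying of wheat seedlings with test suspension (acetone/water 50/50, 250 ppm PEG400). After 24 h in saturated air and 6 days in a growth chamber, both at 20° C, control was scored 0–100 versus untreated plants.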

[3] = 50 ppm test suspension, 0 = no control
[4] = 10 ppm test suspension, soybean seedlings
[5] = 10 ppm test suspension, wheat seedlings
[6] = 10 ppm test suspension, 0 = no control
[7] = 50 ppm test suspension, soybean seedlings
[8] = 50 ppm test suspension, wheat seedlings

With `CCOC(=COc1ccc(CSC(C)=O)cc1)C(F)(F)F` [compound 445] the “Test A disease control rating” value [1, 3] was 38% and the “Test B disease control rating” value [2, 3] was 0%.
For `C=CCOC(=O)c1cnn(Cc2ccc(OCC(O)(O)C(F)(F)F)cc2)c1` [compound 43], the “Test A disease control rating” value [1, 4] was 96% and the “Test B disease control rating” value [2, 5] was 60%.
With `CCO/C(=C\Oc1ccc(Cn2ccc(C(=O)OCCOC)n2)cc1)C(F)(F)F` [compound 360] the “Test A disease control rating” value [1, 6] was 100% and the “Test B disease control rating” value [2, 6] was 0%.
`CCOC(=COc1ccc(CN2CCC(C(=O)OC)CC2)cc1)C(F)(F)F` [compound 309] was tested, and the “Test A disease control rating” value [1, 6] was 100% and the “Test B disease control rating” value [2, 6] was 0%.
With `OC(O)(COc1cccc(CCl)c1)C(F)(F)F` [compound 423] the pest or weed control at 50 ppm [1, 3] was 87% and the pest or weed control at 50 ppm [2, 3] was 80%.
In the case of `CCO/C(=C\Oc1cccc(Cn2cc(C(=O)OCCCC(F)(F)F)cn2)c1)C(F)(F)F` [compound 355], the “Test A disease control rating” value [1, 6] is reported as 100% and the “Test B disease control rating” value [2, 6] is reported as 0%.
In the case of `CCOC(=COc1ccc(Cc2ccnc(SC)n2)cc1)C(F)(F)F` [compound 308], the “Test A disease control rating” value [1, 3] is reported as 25% and the “Test B disease control rating” value [2, 3] is reported as 0%.
`CCO/C(=C\Oc1cccc(Cn2cc(C(=O)OCC3CCC3)cn2)c1)C(F)(F)F` [compound 342] was tested, and the “Test A disease control rating” value [1, 6] was 100% and the “Test B disease control rating” value [2, 6] was 0%.
For `CCOC(=O)C1=NOC(Cc2ccc(OC=C(OCC)C(F)(F)F)cc2)C1` (stereo not drawn) [compound 287], the “Test A disease control rating” value [1, 3] was 77% and the “Test B disease control rating” value [2, 3] was 0%.
With `CCOC(=O)c1cnn(CCc2ccc(OCC(O)(O)C(F)(F)F)cc2)c1` [compound 131] the “Test A disease control rating” value [1, 7] was 99% and the “Test B disease control rating” value [2, 8] was 86%.
With `CCO/C(=C\Oc1ccc(CNS(=O)(=O)CC)cc1)C(F)(F)F` [compound 149] the “Test A disease control rating” value [1, 4] was 0% and the “Test B disease control rating” value [2, 5] was 0%.
For `OC(O)(CCc1ccc(Cn2ccc3ccccc32)cc1)C(F)(F)F` [compound 30], the “Test A disease control rating” value [1, 4] was 0% and the “Test B disease control rating” value [2, 5] was 0%.
`CCO/C(=C\Oc1ccc(Cc2nc(C(=O)NCC3CC3)cs2)cc1)C(F)(F)F` [compound 130] was tested, and the “Test A disease control rating” value [1, 4] was 100% and the “Test B disease control rating” value [2, 5] was 0%.
`CCO/C(=C\Oc1ccc(CC#N)cc1)C(F)(F)F` [compound 154] was tested, and the “Test A disease control rating” value [1, 4] was 0% and the “Test B disease control rating” value [2, 5] was 0%.
Work on `CCOC(=O)c1cnn(COc2cccc(OCC3(C(F)(F)F)OCCO3)c2)c1` [compound 353] yielded a pest or weed control at 50 ppm [1, 3] of 0% and a pest or weed control at 50 ppm [2, 3] of 0%.
For `O=C(NCC(F)(F)F)c1cnc(Cc2ccc(OCC(O)(O)C(F)(F)F)cc2)o1` [compound 274], the “Test A disease control rating” value [1, 6] was 48% and the “Test B disease control rating” value [2, 6] was 0%.
For `CCOC(=O)c1cnn(Cc2ccc(CCC(O)(O)C(F)(F)F)cc2)c1` [compound 66], the “Test A disease control rating” value [1, 7] was 92% and the “Test B disease control rating” value [2, 8] was 89%.
With `CCCCOC(=O)c1cnn(Cc2ccc(OCC3(C(F)(F)F)OCCO3)cc2)c1` [compound 125] the “Test A disease control rating” value [1, 4] was 100% and the “Test B disease control rating” value [2, 5] was 0%.
For `FC(F)(F)C1(COc2ccc(Cc3ccccc3)cc2)OCCO1` [compound 192], the “Test A disease control rating” value [1, 4] was 0% and the “Test B disease control rating” value [2, 5] was 0%.
In the case of `C=CCOC(=O)c1cnn(Cc2cccc(O/C=C(\OCC)C(F)(F)F)c2)c1` [compound 333], the “Test A disease control rating” value [1, 6] is reported as 100% and the “Test B disease control rating” value [2, 6] is reported as 0%.
For `CC(C)OC(=O)c1cnn(Cc2ccc(OCC(O)(O)C(F)(F)F)cc2)c1` [compound 39], the “Test A disease control rating” value [1, 4] was 91% and the “Test B disease control rating” value [2, 5] was 79%.
For `CCOC(=O)c1ccc2c(cnn2Cc2ccc(OCC3(C(F)(F)F)OCCO3)cc2)c1` [compound 160], the “Test A disease control rating” value [1, 4] was 13% and the “Test B disease control rating” value [2, 5] was 0%.
`CCO/C(=C\Oc1cccc(Cn2cc(C(=O)OCC(C)C)cn2)c1)C(F)(F)F` [compound 334] was tested, and the “Test A disease control rating” value [1, 6] was 100% and the “Test B disease control rating” value [2, 6] was 0%.
`CCO/C(=C\Oc1ccc(Cn2cc(C(=O)NCC#N)cn2)cc1)C(F)(F)F` [compound 107] was tested, and the “Test A disease control rating” value [1, 4] was 0% and the “Test B disease control rating” value [2, 5] was 0%.
`CCO/C(=C\Oc1cccc(Cn2cc(C(=O)OCCC(F)(F)F)cn2)c1)C(F)(F)F` [compound 348] was tested, and the “Test A disease control rating” value [1, 6] was 100% and the “Test B disease control rating” value [2, 6] was 0%.
In the case of `CCO/C(=C\Oc1ccc(-c2noc(C(F)(F)F)n2)cc1)C(F)(F)F` [compound 143], the “Test A disease control rating” value [1, 4] is reported as 0% and the “Test B disease control rating” value [2, 5] is reported as 0%.
`FC(F)(F)C1(COc2ccc(OCC3(C(F)(F)F)OCCO3)cc2)OCCO1` [compound 28] was tested, and the “Test A disease control rating” value [1, 4] was 0% and the “Test B disease control rating” value [2, 5] was 0%.
`CCOC(=O)c1cnn(Cc2ccc(OCC3(C(F)(F)F)OC(=O)CS3)cc2)c1` (stereo not drawn) [compound 20] was tested, and the “Test A disease control rating” value [1, 4] was 98% and the “Test B disease control rating” value [2, 5] was 86%.
In the case of `O=C(NCC(F)(F)F)c1csc(Cc2ccc(OCC(O)(O)C(F)(F)F)cc2)n1` [Compound 68], the “Test A disease control rating” value [1, 4] is reported as 100% and the “Test B disease control rating” value [2, 5] is reported as 95%.
In the case of `CCO/C(=C\Oc1ccc(CCn2cc(C(=O)OC)cn2)cc1)C(F)(F)F` [compound 354], the “Test A disease control rating” value [1, 6] is reported as 100% and the “Test B disease control rating” value [2, 6] is reported as 0%.
In the case of `CON(Cc1ccc(OCC2(C(F)(F)F)OCCO2)cc1)C(=O)C1CC1` [compound 236], the “Test A disease control rating” value [1, 4] is reported as 75% and the “Test B disease control rating” value [2, 5] is reported as 0%.
With `CCOC(=O)c1cnn(CCc2cccc(OCC(O)(O)C(F)(F)F)c2)c1` [compound 346] the pest or weed control at 10 ppm [1, 6] was 0% and the pest or weed control at 10 ppm [2, 6] was 0%.
With `CCNC(=O)c1cnn(Cc2cccc(O/C=C(\OCC)C(F)(F)F)c2)c1` [compound 343] the “Test A disease control rating” value [1, 6] was 0% and the “Test B disease control rating” value [2, 6] was 0%.
For `CCO/C(=C\Oc1cccc(Cn2cc(C(=O)OC(C)C)cn2)c1)C(F)(F)F` [compound 332], the “Test A disease control rating” value [1, 6] was 100% and the “Test B disease control rating” value [2, 6] was 0%.
With `CCOC(=O)c1ccnn1Cc1ccc(OC=C(OCC)C(F)(F)F)cc1` [compound 241] the “Test A disease control rating” value [1, 4] was 0% and the “Test B disease control rating” value [2, 5] was 0%.
`CCO/C(=C\Oc1ccc(C(=O)O)cc1)C(F)(F)F` [compound 72] was tested, and the “Test A disease control rating” value [1, 7] was 13% and the “Test B disease control rating” value [2, 8] was 0%.
`CCOC(=O)c1cnn(Cc2cc(C)cc(O/C=C(\OCC)C(F)(F)F)c2)c1` [compound 406] was tested, and the “Test A disease control rating” value [1, 3] was 0% and the “Test B disease control rating” value [2, 3] was 0%.
With `CCOC(=COc1ccc(Cn2ccc(C(=O)OC)n2)cc1)C(F)(F)F` [compound 251] the “Test A disease control rating” value [1, 4] was 100% and the “Test B disease control rating” value [2, 5] was 9%.
`CCOC(=O)c1cnn(COc2ccc(OCC(O)(O)C(F)(F)F)cc2F)c1` [compound 424] was tested, and the pest or weed control at 10 ppm [1, 6] was 97% and the pest or weed control at 10 ppm [2, 6] was 41%.
For `C#CCOC(=O)c1cnn(Cc2cccc(O/C=C(\OCC)C(F)(F)F)c2)c1` [compound 336], the “Test A disease control rating” value [1, 6] was 100% and the “Test B disease control rating” value [2, 6] was 0%.
For `CCO/C(=C\Oc1ccc(C(=O)NC)cc1)C(F)(F)F` [compound 105], the “Test A disease control rating” value [1, 4] was 0% and the “Test B disease control rating” value [2, 5] was 68%.
In the case of `COC(=O)COC(=O)c1cnn(Cc2ccc(OCC3(C(F)(F)F)OCCO3)cc2)c1` [compound 203], the “Test A disease control rating” value [1, 4] is reported as 50% and the “Test B disease control rating” value [2, 5] is reported as 0%.
With `CCO/C(=C\Oc1cccc(Cn2cc(C(=O)OCCCCl)cn2)c1)C(F)(F)F` [compound 338] the “Test A disease control rating” value [1, 6] was 100% and the “Test B disease control rating” value [2, 6] was 0%.
For `CC#CCOC(=O)c1ccn(Cc2ccc(O/C=C(\OCC)C(F)(F)F)cc2)n1` [compound 293], the “Test A disease control rating” value [1, 6] was 100% and the “Test B disease control rating” value [2, 6] was 0%.
For `CS(=O)(=O)c1nccc(Cc2ccc(OCC3(C(F)(F)F)OCCO3)cc2)n1` [compound 282], the “Test A disease control rating” value [1, 3] was 0% and the “Test B disease control rating” value [2, 3] was 0%.
`C=CCOC(=O)c1cnn(Cc2ccc(OCC3(C(F)(F)F)OCCO3)cc2)c1` [compound 188] was tested, and the “Test A disease control rating” value [1, 4] was 100% and the “Test B disease control rating” value [2, 5] was 0%.
For `CCO/C(=C\Oc1ccc(Cn2ncc3cccnc32)cc1)C(F)(F)F` [compound 87], the “Test A disease control rating” value [1, 4] was 0% and the “Test B disease control rating” value [2, 5] was 0%.
For `Cc1ccc(OCC(O)(O)C(F)(F)F)cc1` [compound 396], the “Test A disease control rating” value [1, 3] was 31% and the “Test B disease control rating” value [2, 3] was 19%.
